These results are taken from patent US10023592B2, “Bromodomain inhibitors” (Celgene Quanticel Research, Inc., priority 2013, dated 2018).

The structures appear in SMILES notation. Where only a bound is given, the exact number is not on record here.

For assay [1], the system named is NCI-H460, human non-small cell lung cancer cells. Kind of assay: Cell-MTS proliferation assay, NCI-H460. Format: cell-based. The following applies: Homo sapiens, 168 hr. A digest of the protocol:
(§1)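 Cells were seeded per 96-well at densities giving ~90% confluence by day 7 (Raji 15,000, HL-60 5,000, NCI-H460 3,000) and dosed 24 hr later with an 11-point dilution, 100 μM to 2.0 nM final. Seven-day MTS colorimetric read at OD490; IC50 from background-subtracted, DMSO-normalised values.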
A general note: Formazan colour is commonly taken as a measure of viable cells.

The subject of assay [2] is Raji, human Burkitts lymphoma cells. The experiment in a line: Cell-MTS proliferation assay, Raji. Format: cell-based. The following applies: Homo sapiens, 168 hr. A digest of the protocol: as §1
The target in assay [3] is BRD4(BD1) (Homo sapiens (Human), UniProt O60885). The experiment in a line: In vitro enzyme inhibition assay (BRD4 AlphaScreen). Format: binding. An outline of the steps:
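AlphaScreen proximity readout, using streptavidin donor and Ni-chelate acceptor beads at 5 μg/mL final, monitors biotin-H4 tetraacetylated peptide interaction with purified His-tagged BRD4.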
Background: In Alpha technology, singlet oxygen from a donor bead excites a nearby acceptor bead.

Assay [4] has as its system HL-60, human proleukemia cells. Kind of assay: Cell-MTS proliferation assay, HL-60. Format: cell-based. As to conditions: Homo sapiens, 168 hr. An outline of the steps: as §1
Where [5] appears, read: NCI-H460, Cell-MTS, class symbols A/B/C.
Where [6] appears, read: Raji, Cell-MTS, class symbols A/B/C.
[7] abbreviates: HL-60, Cell-MTS, class symbols A/B/C.
Where [8] appears, read: Cell-MTS proliferation, NCI-H460 cells.
Where [9] appears, read: Cell-MTS proliferation, Raji cells.
The mark [10] stands for this setting: in vitro enzyme inhibition assay.
The mark [11] stands for this setting: Cell-MTS proliferation, HL-60 cells.
Setting [12] is: NCI-H460, Cell-MTS proliferation.

With `CCS(=O)(=O)Nc1ccc(Oc2ccc(F)cc2F)c(-c2cc(Cl)c(=O)n(C)c2)c1` [Example 134, N-[3-(5-chloro-1-methyl-6-oxopyridin-3-yl)-4-(2,4-difluorophenoxy)phenyl]ethanesulfonamide], the IC50 (usually the midpoint of a concentration-inhibition curve) in assay [1] (setting [5]) is 500 to 5000 nM; in assay [2] (setting [6]), less than 500 nM; in assay [3] (class symbols A/B/C) it was less than 500 nM; in assay [4] (setting [7]), less than 500 nM.

In the case of `CCS(=O)(=O)Nc1ccc(OC2CCCOC2)c(-c2cc(C)c(=O)n(C)c2)c1` (stereo not drawn) [Example 448, N-[3-(1,5-dimethyl-6-oxopyridin-3-yl)-4-(oxan-3-yloxy)phenyl]ethanesulfonamide], the IC50 is greater than 5000 nM in assay [1] (setting [8]), less than 500 nM in assay [2] (setting [9]), less than 500 nM in assay [3] (setting [10]) and less than 500 nM in assay [4] (setting [11]).

Take `CCS(=O)(=O)Nc1ccc(Oc2ccc(F)cc2F)c(-c2cn(C)c(=O)c3cncn23)c1` [Example 129, N-[4-(2,4-difluorophenoxy)-3-(7-methyl-8-oxoimidazo[1,5-a]pyrazin-5-yl)phenyl]ethanesulfonamide]: the IC50 in assay [1] (setting [5]) was greater than 5000 nM; in assay [2] (setting [6]) it was less than 500 nM; in assay [3] (class symbols A/B/C), less than 500 nM; in assay [4] (setting [7]), less than 500 nM.

On to `Cn1cc(-c2ccc3c(=O)n(C)cc(-c4nc(CS(C)(=O)=O)ncc4OCC4CC4)c3c2)cn1` [Example 145, 4-[5-(cyclopropylmethoxy)-2-(methylsulfonylmethyl)pyrimidin-4-yl]-2-methyl-6-(1-methylpyrazol-4-yl)isoquinolin-1-one], for which the half-maximal inhibitory concentration (IC50) in assay [1] (setting [12]) is greater than 5000 nM; in assay [2] (Raji, Cell-MTS proliferation), 500 to 5000 nM; in assay [3] (setting [10]), less than 500 nM; in assay [4] (HL-60, Cell-MTS proliferation), less than 500 nM.

Consider `COc1cc(-c2cc(NS(C)(=O)=O)ccc2Oc2ccc(F)cc2F)cn(C)c1=O` [Example 442, N-[4-(2,4-difluorophenoxy)-3-(5-methoxy-1-methyl-6-oxopyridin-3-yl)phenyl]methanesulfonamide], for which the IC50 was greater than 5000 nM in assay [1] (setting [8]), less than 500 nM in assay [2] (setting [9]), less than 500 nM in assay [3] (setting [10]) and less than 500 nM in assay [4] (setting [11]).

For the compound `CCS(=O)(=O)c1ccc(OCC2CC2)c(-c2cc(F)c(=O)n(C)c2)c1` [Example 274, 5-[2-(cyclopropylmethoxy)-5-ethylsulfonylphenyl]-3-fluoro-1-methylpyridin-2-one], the IC50 is greater than 5000 nM in assay [1] (setting [12]); 500 to 5000 nM in assay [2] (Raji, Cell-MTS proliferation); less than 500 nM in assay [3] (setting [10]); 500 to 5000 nM in assay [4] (HL-60, Cell-MTS proliferation).

Take `CCS(=O)(=O)c1ccc(NC2CCC(F)(F)CC2)c(-c2cc(C)c(=O)n(C)c2)c1` [Example 397, 5-[2-[(4,4-difluorocyclohexyl)amino]-5-ethylsulfonylphenyl]-1,3-dimethylpyridin-2-one]: the IC50 is greater than 5000 nM in assay [1] (setting [8]), less than 500 nM in assay [2] (setting [9]), less than 500 nM in assay [3] (setting [10]) and less than 500 nM in assay [4] (setting [11]).

As to `Cn1cc(-c2nc(NS(C)(=O)=O)ncc2OCC2CC2)c2ccc(F)cc2c1=O` [Example 158, N-[5-(cyclopropylmethoxy)-4-(7-fluoro-2-methyl-1-oxoisoquinolin-4-yl)pyrimidin-2-yl]methanesulfonamide], the IC50 in assay [1] (setting [12]) was greater than 5000 nM; in assay [2] (Raji, Cell-MTS proliferation), less than 500 nM; in assay [3] (setting [10]), less than 500 nM; in assay [4] (HL-60, Cell-MTS proliferation), less than 500 nM.

For the compound `Cc1cc(-c2cc(S(C)(=O)=O)ccc2OCC2CC2)cn(CC2COC2)c1=O` [Example 245, 5-[2-(cyclopropylmethoxy)-5-methylsulfonylphenyl]-3-methyl-1-(oxetan-3-ylmethyl)pyridin-2-one], the IC50 in assay [1] (setting [12]) is greater than 5000 nM; in assay [2] (Raji, Cell-MTS proliferation) it was greater than 5000 nM; in assay [3] (setting [10]) it was 500 to 5000 nM; in assay [4] (HL-60, Cell-MTS proliferation), greater than 5000 nM.

In the case of `CCS(=O)(=O)Nc1ccc(Oc2ccc(F)cc2F)c(-c2cn(C)c(=O)c3occc23)c1` [Example 253, N-[4-(2,4-difluorophenoxy)-3-(6-methyl-7-oxofuro[2,3-c]pyridin-4-yl)phenyl]ethanesulfonamide], the half-inhibitory concentration (IC50) in assay [1] (setting [12]) was greater than 5000 nM; in assay [2] (Raji, Cell-MTS proliferation), less than 500 nM; in assay [3] (setting [10]), less than 500 nM; in assay [4] (HL-60, Cell-MTS proliferation), less than 500 nM.

For the compound `CCS(=O)(=O)Nc1ccc(O[C@H]2CC[C@@H](O)CC2)c(-c2cc(C)c(=O)n(C)c2)c1` [Example 431, N-[3-(1,5-dimethyl-6-oxopyridin-3-yl)-4-(cis-4-hydroxycyclohexyl)oxyphenyl]ethanesulfonamide], the IC50 in assay [1] (setting [8]) is greater than 5000 nM; in assay [2] (setting [9]), 500 to 5000 nM; in assay [3] (setting [10]), less than 500 nM; in assay [4] (setting [11]) it was less than 500 nM.

On to `CCS(=O)(=O)Nc1ccc(Oc2ccc(F)cc2F)c(-c2cc(C)c(=O)n(C)c2)c1` [Example 472, N-[4-(2,4-difluorophenoxy)-3-(1,5-dimethyl-6-oxopyridin-3-yl)phenyl]ethanesulfonamide], for which the IC50 was greater than 5000 nM in assay [1] (setting [8]), less than 500 nM in assay [2] (setting [9]), less than 500 nM in assay [3] (setting [10]) and less than 500 nM in assay [4] (setting [11]).

`Cc1cc(-c2cc(NS(C)(=O)=O)ccc2O[C@H]2CC[C@H](O)CC2)cn(C)c1=O` [Example 433, N-[3-(1,5-dimethyl-6-oxopyridin-3-yl)-4-(trans-4-hydroxycyclohexyl)oxyphenyl]methanesulfonamide]: the IC50 is greater than 5000 nM in assay [1] (setting [8]), less than 500 nM in assay [2] (setting [9]), less than 500 nM in assay [3] (setting [10]) and less than 500 nM in assay [4] (setting [11]).

For `Cc1cc(-c2cc(NS(C)(=O)=O)ccc2O[C@H]2CC[C@@H](O)CC2)cn(C)c1=O` [Example 434, N-[3-(1,5-dimethyl-6-oxopyridin-3-yl)-4-(cis-4-hydroxycyclohexyl)oxyphenyl] methanesulfonamide], the IC50 in assay [1] (setting [8]) is greater than 5000 nM; in assay [2] (setting [9]), 500 to 5000 nM; in assay [3] (setting [10]), less than 500 nM; in assay [4] (setting [11]) it was 500 to 5000 nM.

Regarding `COCC1COc2cc(S(C)(=O)=O)cc(-c3cc(C)c(=O)n(C)c3)c2O1` (stereo not drawn) [Example 498, 5-[3-(methoxymethyl)-7-methylsulfonyl-2,3-dihydro-1,4-benzodioxin-5-yl]-1,3-dimethylpyridin-2-one], the IC50 in assay [1] (setting [8]) was greater than 5000 nM; in assay [2] (setting [9]), greater than 5000 nM; in assay [3] (setting [10]), less than 500 nM; in assay [4] (setting [11]), 500 to 5000 nM.

Take `Cc1cc(-c2cc(OCc3ccccc3OC(F)F)cc(S(C)(=O)=O)c2)cn(C)c1=O` [Example 333, 5-[3-[[2-(difluoromethoxy)phenyl]methoxy]-5-methylsulfonylphenyl]-1,3-dimethylpyridin-2-one]: the IC50 in assay [1] (setting [12]) was greater than 5000 nM; in assay [2] (Raji, Cell-MTS proliferation) it was 500 to 5000 nM; in assay [3] (setting [10]), less than 500 nM; in assay [4] (HL-60, Cell-MTS proliferation), less than 500 nM.

On to `Cc1cc(-c2nc(S(C)(=O)=O)ncc2Oc2ccc(F)cc2F)cn(C)c1=O` [Example 149, 5-[5-(2,4-difluorophenoxy)-2-methylsulfonylpyrimidin-4-yl]-1,3-dimethylpyridin-2-one], for which the IC50 was greater than 5000 nM in assay [1] (setting [12]); greater than 5000 nM in assay [2] (Raji, Cell-MTS proliferation); 500 to 5000 nM in assay [3] (setting [10]); greater than 5000 nM in assay [4] (HL-60, Cell-MTS proliferation).

For `CCS(=O)(=O)Nc1cccc(-c2cn(C)c(=O)c3ccc(-c4ccc(C)nc4)cc23)c1` [Example 72, N-[3-[2-methyl-6-(6-methylpyridin-3-yl)-1-oxoisoquinolin-4-yl]phenyl]ethanesulfonamide], the IC50 was 500 to 5000 nM in assay [1] (setting [5]), less than 500 nM in assay [2] (setting [6]), less than 500 nM in assay [3] (class symbols A/B/C) and less than 500 nM in assay [4] (setting [7]).
